According to ChEMBL document CHEMBL1128144, “Cyclic sulfone-3-carboxamides as novel P2-ligands for Ro 31-8959 based HIV-1 protease inhibitors” (Bioorg Med Chem Lett, 1995):

How the values were obtained:
[1] = biological target: Human immunodeficiency virus type 1 protease (Human immunodeficiency virus 1, UniProt Q72874); test: Inhibition of HIV-1 Protease
[2] = test system: MT4; test: Inhibitory activity against HIV-1 in MT-4 lymphoid cells infected with IIIb; type: functional; settings: Homo sapiens, read-out: CIC95

Compound `CC(C)(C)NC(=O)[C@@H]1C[C@@H]2CCCC[C@@H]2CN1C[C@@H](O)[C@H](Cc1ccccc1)NC(=O)[C@@H]1CCCSC1` has an IC50 [1] of 78.4 nM.

`CC(C)(C)NC(=O)[C@@H]1C[C@@H]2CCCC[C@@H]2CN1C[C@@H](O)[C@H](Cc1ccccc1)NC(=O)[C@H]1CCCSC1` was tested, and the IC50 [1] was 98.8 nM.

For `CC(C)(C)NC(=O)[C@@H]1C[C@@H]2CCCC[C@@H]2CN1C[C@@H](O)[C@H](Cc1ccccc1)NC(=O)[C@@H]1CCS(=O)(=O)C1`, the IC50 [1] was 200 nM.

Work on `CC(C)(C)NC(=O)[C@@H]1C[C@@H]2CCCC[C@@H]2CN1C[C@@H](O)[C@H](Cc1ccccc1)NC(=O)[C@@H]1CCSC1` yielded an IC50 [1] of 342 nM.

With `CC(C)(C)NC(=O)[C@@H]1C[C@@H]2CCCC[C@@H]2CN1C[C@@H](O)[C@H](Cc1ccccc1)NC(=O)C1=CCCSC1` the IC50 [1] was 167 nM.

Compound `CC(C)(C)NC(=O)[C@@H]1C[C@@H]2CCCC[C@@H]2CN1C[C@@H](O)[C@H](Cc1ccccc1)NC(=O)[C@H]1CCS(=O)(=O)C1` has an IC50 [1] of 193 nM.

`CC(C)(C)NC(=O)[C@@H]1C[C@@H]2CCCC[C@@H]2CN1C[C@@H](O)[C@H](Cc1ccccc1)NC(=O)C1=CCCS(=O)(=O)C1` gave an IC50 [1] of 54.7 nM.

`CC(C)(C)NC(=O)[C@@H]1C[C@@H]2CCCC[C@@H]2CN1C[C@@H](O)[C@H](Cc1ccccc1)NC(=O)[C@H]1CCSC1` gave an IC50 [1] of 650 nM.

`CC(C)(C)NC(=O)[C@@H]1C[C@@H]2CCCC[C@@H]2CN1C[C@@H](O)[C@H](Cc1ccccc1)NC(=O)[C@@H]1CCCS(=O)(=O)C1` gave an IC50 [1] of 9.2 nM and an IC95 [2] of 200 nM.

`CC(C)(C)NC(=O)[C@@H]1C[C@@H]2CCCC[C@@H]2CN1C[C@@H](O)[C@H](Cc1ccccc1)NC(=O)[C@H]1CCCS(=O)(=O)C1` showed an IC50 [1] of 23.5 nM and an IC95 [2] of 400 nM.
